# Measurements published in patent US8318950B2, “N-acyl amino acid derivatives, a method for the preparation thereof, a pharmaceutical composition and use thereof as anti-allergic, anti-inflammatory and hypolipidemic agents” (Otkrytoe Aktsionernoe Obschestvo-Otechestvennye Lekarstva, priority 2005, dated 2012).
# Tests used:
# [1] = test system: endogenous hypercholesterolemia in guinea pigs; assay: Model of endogenous hypercholesterolemia in guinea pigs (fat loading); format: in vivo, guinea pig; design: Serum total cholesterol / Serum total triglyceride levels: unit not given here; conditions: for Serum total cholesterol / Serum total triglyceride levels: fat loading + compound 500 μg/kg orally
# Protocol: The study was carried out on male guinea pigs (Aguti line) weighing 304±25 g. The experiment lasted 31 days. The control group included 6 guinea pigs (intact animals). The compounds studied were administered from day 1 of the experiment (from day 1 of administering fat loading).
# The animals of experimental groups received orally for 31 days a compound studied and fat loading. The compound studied at doses indicated below was administered in the form of an aqueous solution (0.5 ml per an animal); fat loading (a mixture of porcine fat and preliminary heated corn oil at 4:1 ratio by volume, at the rate of 5 ml/kg weight 0.5 h post administering the substance studied.
# 1) “control”—intact animals;
# 2) “fat”—animals that received fat loading only
# 3) “compound IV”—animals that received fat loading+compound IV at dose 500 μg/kg body weight;
# 4) “compound V”—animals that received fat loading+compound V at dose 500 μg/kg body weight.
# Statistical processing was carried out using a mono-factorial analysis of variance.
# [2] = test system: guinea pig blood basophils; assay: In vitro ovalbumin (OA)-induced blood basophil degranulation of immunized guinea pig; format: cell-based; conditions: for inhibition at 1000 µM / inhibition at 100 µM / inhibition at 10 µM: Cavia porcellus, read-out: Complete degranulation inhibition (CDI)
# Protocol: Leukocytes from guinea pig blood were isolated according to the Freemel's method [Immunologicheskiye Metody under edition of G. Frimel/Moscow., “Meditsina” publishers, 1987, p. 222 in the inventor's modification].
# Guinea pigs of both sexes weighing from 600 to 800 g were used to conduct the test. The animals were once immunized with a mixture of 10 μg ovalbumin and 100 mg aluminum hydroxide per one animal according to Andersson [Anderson P. Antigen-induced bronchial anaphylaxis in actively sensitized guinea-pigs.//Allergy. 1980. Vol. 35. P. 63-71].
# Under ester anesthesia, 15 ml blood were drawn from guinea pig heart. Double precipitation of cells using EDTA and a citrate-containing precipitating liquid was used to isolate basophils in the leukocyte suspension.
# Blood was mixed with 5% EDTA.Na2 2H2O (“Sigma”) solution at 9:1 ratio and in 30 minutes it was subjected to mild centrifugation (for 12 minutes at 80 g). Supernatant was collected and centrifuged for 15 minutes at 500 g.
# To the remaining cells, a citrate-containing precipitating liquid (3) was added at proportion 3:10 (it was thermostated at 37° C. for 30 minutes). A supernatant fraction enriched by leukocytes was centrifuged for 7 minutes at 100 g. To leukocyte precipitate, 0.85% NaCl solution was added and cellular concentration was brought to 30×10^3 μl.
# Protocol of the in vitro basophil degranulation test [Spravochnil po klinicheskim laboratomym metodam issledovaniya (A reference book on clinical-laboratory examination methods)/Edited by E. A. Cost/Moscow, “Meditsina” publishers, 1975, p. 130].
# For the test, a centrifuge tube (3 tubes per each sample) was filled with 300 μl cellular suspension, then salt solution of a tested compound (or a salt solution in the control of spontaneous and maximum degranulation) was added and pre-incubated at 37° C. for 15 minutes, then into each tube 300 μl 1% OA solution was added (in the control of spontaneous degranulation a salt solution in the same amount was added) and once more pre-incubated at 37° C. for 10 minutes. Functional leukocyte concentration was 10^4/μl. Samples (100 μl) were taken off from each tube into separate tubes to assess a complete basophil degranulation, and to the remained cells, a cooled salt solution was added (5 ml into each tube) to arrest degranulation reaction, then the tubes were centrifuged for 7 min at 100 g, and from precipitate, preparations for microscopy were prepared. The preparations were fixed and stained according to the method of Seder et al. [Seder R. A. et al. Mouse splenic and bone marrow cell populations that express high—affinity Fcε receptors and produce interleukin-4 are highly enriched in basophils.//Proc. Natl. Acad. USA, 1991, V. 88, P. 2835-2839].
# In order to detect a specific basophil granulation, the dye 0.5% alcyanic blue (pH 1.0) was used, nuclei were additionally stained with safranin (0.1% solution in 1% acetic acid). The preparations were used to assess a total degranulation inhibition.
# A total degranulation inhibition (DI) (%) was calculated according to the formula: […]
# max—% of degranulated basophils at the maximum degranulation (OA)
# spontaneous—% of degranulated basophils in spontaneous degranulation (control)
# experimental—% of degranulated basophils following exposure to the tested compound.
# Assessment of a Complete Basophil Degranulation
# Samples selected following basophil degranulation test (100 μl each) were poured into tubes with the dye (0.5% alcyane blue, pH 1.0) at ratio 1:1. Staining was carried out at room temperature for not less than 50 min. Stained basophils were calculated using the Fooks-Rosenthal chamber. Inhibition of a complete basophil degranulation (ICD) was calculated according to the formula: ICD(%)=1−[(Mm(c)−Mm(exper.)]/Mm(c)−Mm(OA)]×100, wherein
# M m (c)—mean (by three samples) basophil number in the spontaneous basophil degranulation test
# M±m (OA)—mean (by three samples) basophil number in the maximum antigen-induced basophil degranulation test; […]
# [3] = test system: animals with atherogenic loading; conditions: WO 99/01103, similar biological experiment; cited from earlier work
# [4] = test system: antigen-induced bronchial spasm; conditions: oral and intratracheal route, 50 μg/kg; cited from earlier work
# [5] = test system: passive cutaneous anaphylaxis; conditions: in vivo; cited from earlier work
# [6] = test system: delayed type hypersensitivity; conditions: doses 50 and 500 μg/kg; cited from earlier work
# [7] = test system: carrageenan-induced rat paw edema; assay: Carrageenan rat paw edema; format: in vivo; conditions: 1% gel applied on the paw three times; paw volume 4 hours post carrageenan
# Protocol: The experiments were performed on white outbred male rats weighing 250 g. A total amount of animals per an experiment was 12.
# The model of carrageenan-induced edema seconding to the method of Winter et al. was used (Winter et al. Studies of the mediators of the acute inflammatory response induced in rats in different sites by carrageenan and turpentine.//J. Phamacol. 1971. V. 104. P. 15-29). 0.1 ml 1% carrageenan solution (SERVA) was subplantarly injected into the right rat paw. The animals were placed into individual chambers. Gel (1%) comprising a substance tested was applied on the paw three times: immediately following carrageenan administration, ate 1 and 2 hours post administration. 4 hours post administration of carrageenan, paw volumes were measured using a plethysmograph (Ugo Basile) Therapeutic effect of the gel was assessed by inhibition degree of inflammatory reaction in comparison with the intact left paw of the given animal and rat paw reaction of the control (untreated) group inflammatory reaction inhibition expressed in percent, was calculated according to the formula: […]
# [8] = day 31, blood serum, 500 μg/kg orally (Table 24)
# [9] = day 31, blood serum, 500 μg/kg orally (Table 25)
smiles,measurement,setting,value
"O=C(O)CCC(=O)N[C@@H](Cc1c[nH]cn1)C(=O)O [Compound V, N^α-succinyl-L-histidine]",Serum total cholesterol,[1]; Day 28,52.9 ± 6.5
same,Serum total triglyceride levels,[1]; Day 28,62.3 ± 5.4
same,Serum total cholesterol,[1]; Day 31,46.3 ± 4.1
same,Serum total triglyceride levels,[1]; Day 31,56.0 ± 6.1
same,lowered LDL cholesterol,[1]; by day 31 of the experiment,38%
same,lowered total cholesterol level,[1]; by day 31 of the experiment,37.8%
same,"Cholesterol, LDL",[1]; [8],41.9 ± 2.7 mg/100 ml
same,"Cholesterol, Total",[1]; [8],46.3 ± 4.1 mg/100 ml
same,"Cholesterol, VLDL",[1]; [8],2.1 ± 0.4 mg/100 ml
same,"Triglycerides, LDL",[1]; [9],23.1 ± 1.9 mg/100 ml
same,"Triglycerides, Total",[1]; [9],56 ± 6.1 mg/100 ml
same,"Triglycerides, VLDL",[1]; [9],22.5 ± 4.4 mg/100 ml
same,Number of completely degranulated basophils,[2]; 10^−3 M,35.3 ± 7.29%
same,Number of completely degranulated basophils,[2]; 10^−4 M,31.2 ± 6.8%
same,Number of completely degranulated basophils,[2]; 10^−5 M,24.6 ± 10.38%
same,inhibition at 1000 µM,[2]; 10^−3 M,10.6 ± 7.6%
same,inhibition at 100 µM,[2]; 10^−4 M,18.9 ± 11.8%
same,inhibition at 10 µM,[2]; 10^−5 M,44 ± 11.3%
"O=C(O)CCCC(=O)NCCc1cnc[nH]1 [Glutaryl histamine, glutaryl histamine, reference compound]",lowering total cholesterol level,[3],9%
same,Decrease in bronchial spasm value as compared to the control,[4],> 50%
same,manifestations of passive cutaneous anaphylaxis,[5],capable of lowering manifestations
same,Complete degranulation inhibition (CDI),[2]; 10^−3 M,9.3 ± 5.5%
same,Number of completely degranulated basophils,[2]; 10^−3 M,31.6 ± 6.33%
same,Complete degranulation inhibition (CDI),[2]; 10^−4 M,24.1 ± 1.1%
same,Number of completely degranulated basophils,[2]; 10^−4 M,25.3 ± 3.38%
same,Complete degranulation inhibition (CDI),[2]; 10^−5 M,0%
same,Number of completely degranulated basophils,[2]; 10^−5 M,29.8 ± 6.73%
same,intensity of delayed type hypersensitivity,[6],significantly lower intensity
"C[C@]12CCC(=O)C=C1CC[C@@H]1[C@@H]2[C@@H](O)C[C@@]2(C)[C@H]1CC[C@]2(O)C(=O)CO [Hydrocortisone, reference compound]",Number of completely degranulated basophils,[2]; 10^−3 M,10.0 ± 0.7%
same,Number of completely degranulated basophils,[2]; 10^−4 M,17.3 ± 0.9%
same,Number of completely degranulated basophils,[2]; 10^−5 M,20.0 ± 1.3%
same,inhibition at 1000 µM,[2]; 10^−3 M,71 ± 1.6%
same,inhibition at 100 µM,[2]; 10^−4 M,48 ± 0.8%
same,inhibition at 10 µM,[2]; 10^−5 M,40 ± 0.6%
"COC(=O)[C@H](Cc1c[nH]cn1)NC(=O)CCC(=O)O [VI, N^α-succinyl-L-histidine methyl ester]",inhibition of edema,[7],44%
"COC(=O)[C@H](Cc1c[nH]c2ccccc12)NC(=O)CCCC(=O)O [XIII, N^α-glutaryl-L-tryptophane methyl ester]",inhibition of edema,[7],40%
"O=C(O)Cc1ccccc1Nc1c(Cl)cccc1Cl [diclofenac, reference compound]",inhibition of edema,[7],62%
